The subject of this experiment is apyrase. Nature of the experiment: In vitro apyrase assay (screen for apyrase inhibitors, phosphate release read at 630 nm). Conditions: inhibitor conc at 1 mM; 1 hr at room temperature; rounded average of two assay results. It counts as biochemical. The method, then: Method 1: In Vitro Apyrase Assay: Apyrase inhibitors useful as enhancers of pesticidal activity are assessed using an in vitro assay. The method of Windsor, Bio Techniques 33:1024-1030 (November 2002) was used as follows: Screen for Apyrase Inhibitors - 96 well plates were used for the assay: (Greiner bio-one: REF-655901-96 well, PS, F-bottom, Clear, Non-binding) Buffers: • Reaction Buffer: 60 mM Hepes; 3 mM MgCl2, 3 mM CaCl2 and 3 mM ATP (pH 6.5) • Development Buffer A: 2% aqueous ammonium molybdate • Development Buffer B: 11% ascorbic acid in 37.5% TCA in water • Stop buffer C: 2% trisodium citrate in 2% acetic acid solution in water • Add 100 μl of reaction buffer to each well. • Add […] (control) or inhibitor/compound or compounds such as […] or orthovanadate to each well. […] A blank cell indicates either <10% observed inhibition or a large difference between repetitions. In certain examples, the lack of observed inhibition is due to a lack of solubility of the compound under assay conditions, rather than a lack of apyrase inhibitory activity. Roux compound 15 inhibited apyrase in this assay at about 60%.
With `C/C(=N/NC(=O)c1cccc(C)c1)C1CC1` [I-32, (Z)-N′-(1-cyclopropylethylidene)-3-methylbenzohydrazide], the “% Inhibition of Apyrase” value is on record as 10%. For `C/C(=N\NC(=O)c1ccc(Cl)cc1Cl)c1ccccn1` [I-27, (E)-2,4-dichloro-N′-(1-(pyridin-2-yl)ethylidene)benzohydrazide] the value was 10%; for `CCCCCCCCC/C(C)=N\NC(=O)c1ccccc1` [I-5, (Z)-N′-(undecan-2-ylidene)benzohydrazide], 22%. On to `CNS(=O)(=O)c1cccc(C(=O)N/N=C(\C)c2ccc3ccccc3c2)c1` [I-222, (E)-N-methyl-3-(2-(1-(naphthalen-2-yl)ethylidene)hydrazine-1-carbonyl)benzenesulfonamide], for which the “% Inhibition of Apyrase” value worked out at 12%.

In the case of `CCc1ccc(/C=N/NC(=O)c2ccccc2)cc1` [I-25, (E)-N′-(4-ethylbenzylidene)benzohydrazide], the “% Inhibition of Apyrase” value is listed as 11%. For `C/C(=N\NC(=O)c1ccc(C)s1)c1ccc2ccccc2c1` [I-212, (E)-5-methyl-N′-(1-(naphthalen-2-yl)ethylidene)thiophene-2-carbohydrazide] the value was 56%. For `C/C(=N\NC(=O)c1cccc(CO)c1)c1ccc2ccccc2c1` [I-220, (E)-3-(hydroxymethyl)-N′-(1-(naphthalen-2-yl)ethylidene)benzohydrazide], the “% Inhibition of Apyrase” value was determined as 25%. As to `C/C(=N\NC(=O)c1cccc2ccccc12)c1ccc(C)c(C)c1` [I-11, (E)-N′-(1-(3,4-dimethylphenyl)ethylidene)-1-naphthohydrazide], the “% Inhibition of Apyrase” value was determined as 17%. For `CCC/C=N/NC(=O)c1ccccc1` [I-19, (E)-N′-butylidenebenzohydrazide] the value was 13%; for `C/C(=N/NC(=O)c1cccc(C)c1)c1ccc2ccccc2c1` [I-7, (Z)-3-methyl-N′-(1-(naphthalen-2-yl)ethylidene)benzohydrazide], 20%; for `CC(=NNC(=O)c1cccc(C)c1)c1ccc2c(c1)CCCC2` [I-204, (E)-3-methyl-N′-(1-(5,6,7,8-tetrahydronapthalen-2-yl)ethylidene)benzohydrazide], 74%. For `C/C(=N\NC(=O)c1n[nH]c2c1CCCC2)c1ccc2ccccc2c1` [I-14, (E)-N′-(1-(naphthalen-2-yl)ethylidene)-4,5,6,7-tetrahydro-1H-indazole-3-carbohydrazide] the value was 16%.

Consider `C/C(=N\NC(N)=O)c1cccc2ccccc12` [I-23, (E)-2-(1-(naphthalen-1-yl)ethylidene)hydrazine-1-carboxamide], for which the “% Inhibition of Apyrase” value was 12%. The same measure for `CCCC(CCC)=NNC(=O)c1ccccc1F` [I-30, 2-fluoro-N′-(heptan-4-ylidene)benzohydrazide]: 10%; for `C/C(=N\NC(=O)c1cccc(C)c1)c1ccc2c(c1)CCC2` [I-224, (E)-N′-(1-(2,3-dihydro-1H-inden-5-yl)ethylidene)-3-methylbenzohydrazide]: 10%. Consider `COc1ccc2cc(/C(C)=N/NC(=O)c3ccc4c(c3)OCO4)ccc2c1` [I-13, (E)-N′-(1-(6-methoxynaphthalen-2-yl)ethylidene)benzo[d][1,3]dioxole-5-carbohydrazide], for which the “% Inhibition of Apyrase” value was determined as 16%. On to `C/C(=N\NC(=O)c1ccc(C)c(C)c1)c1ccc2ccccc2c1` [I-206, (E)-3,4-dimethyl-N′-(1-(naphthalen-2-yl)ethylidene)benzohydrazide], for which the “% Inhibition of Apyrase” value came out at 68%. The same measure for `COc1ccc2cc(/C(C)=N/NC(=O)c3ccc(OC)c(OC)c3)ccc2c1` [I-20, (E)-3,4-dimethoxy-N′-(1-(6-methoxynaphthalen-2-yl)ethylidene)benzohydrazide]: 12%; for `C/C(=N\NC(=O)c1cncc(C)c1)c1ccc2ccccc2c1` [I-226, (E)-5-methyl-N′-(1-(naphthalen-2-yl)ethylidene)nicotinohydrazide]: 1%; for `CC(C)(C)/C=N/NC(=O)c1ccccc1` [I-26, (E)-N′-(2,2-dimethylpropylidene)benzohydrazide]: 11%. The same measure for `C/C(=N\NC(=O)c1ccc(NS(C)(=O)=O)cc1)c1ccc2ccccc2c1` [I-208, (E)-N-(4-(2-(1-(naphthalen-2-yl)ethylidene)hydrazine-1-carbonyl)phenyl)methanesulfonamide]: 66%; for `C/C(=N\NC(=O)c1cccc(Cl)c1)c1ccc2ccccc2c1` [I-31, (E)-3-chloro-N′-(1-(naphthalen-2-yl)ethylidene)benzohydrazide]: 10%; for `C/C(=N\NC(=O)c1cncc(Br)c1)c1ccc2ccccc2c1` [I-6, (E)-5-bromo-N′-(1-(naphthalen-2-yl)ethylidene)nicotinohydrazide]: 22%. Regarding `C/C(=N\NC(=O)c1ccccc1)c1ccc(-c2ccccc2)cc1` [I-22, (E)-N′-(1-([1,1′-biphenyl]-4-yl)ethylidene)benzohydrazide], the “% Inhibition of Apyrase” value is reported as 12%. The same measure for `C/C(=N\NC(=O)c1cccc(S(=O)(=O)N2CCOCC2)c1)c1ccc2ccccc2c1` [I-3, (E)-3-(morpholinosulfonyl)-N′-(1-(naphthalen-2-yl)ethylidene)benzohydrazide]: 46%. For `C/C(=N\NC(=O)c1cccc(C(F)(F)F)c1)c1ccc2ccccc2c1` [I-210, (E)-N′-(1-(naphthalen-2-yl)ethylidene)-3-(trifluoromethyl)benzohydrazide] the value was 63%. Regarding `C/C(=N\NC(=O)c1csc(C)c1)c1ccc2ccccc2c1` [I-216, (E)-5-methyl-N′-(1-(naphthalen-2-yl)ethylidene)thiophene-3-carbohydrazidee], the “% Inhibition of Apyrase” value came to 44%. For `C/C(=N\NC(=O)c1ccnc(C)n1)c1ccc2ccccc2c1` [I-219, (E)-2-methyl-N′-(1-(naphthalen-2-yl)ethylidene)pyrimidine-4-carbohydrazide] the value was 40%; for `C/C(=N\NC(=O)c1cnnc(C)c1)c1ccc2ccccc2c1` [I-205, (E)-6-methyl-N′-(1-(naphthalen-2-yl)ethylidene)pyridazine-4-carbohydrazide], 68%; for `C/C(=N\NC(=O)c1ccccc1F)c1ccncc1` [I-12, (E)-2-fluoro-N′-(1-(pyridin-4-yl)ethylidene)benzohydrazide], 16%. For `C/C(=N\NC(=O)c1cccc(S(=O)(=O)N(C)C)c1)c1ccc2ccccc2c1` [I-221, (E)-N,N-dimethyl-3-(2-(1-(naphthalen-2-yl)ethylidene)hydrazine-1-carbonyl)benzenesulfonamide] the value was 23%; for `C/C(=N\NC(=O)c1ccc2c(c1)OCO2)c1cccnc1` [I-10, (E)-N′-(1-(pyridin-3-yl)ethylidene)benzo[d][1,3]dioxole-5-carbohydrazide], 17%.

Turning to `C/C(=N\NC(=O)c1cccc(N(C)C)c1)c1ccc2ccccc2c1` [I-209, (E)-3-(dimethylamino)-N′-(1-(naphthalen-2-yl)ethylidene)benzohydrazide], the “% Inhibition of Apyrase” value is listed as 65%.

Turning to `CCCCCC(=O)N/N=C(\C)c1cccc2ccccc12` [I-16, (E)-N′-(1-(naphthalen-1-yl)ethylidene)hexanehydrazide], the “% Inhibition of Apyrase” value amounted to 14%.

As for `C/C(=N\NC(=O)c1ccc(NS(=O)(=O)c2cccs2)cc1)c1ccc2ccccc2c1` [I-2, (E)-N-(4-(2-(1-(naphthalen-2-yl)ethylidene)hydrazine-1-carbonyl)phenyl)thiophene-2-sulfonamide], the “% Inhibition of Apyrase” value worked out at 60%.

As for `C/C(=N\NC(=O)c1cc(C)cs1)c1ccc2ccccc2c1` [I-207, (E)-4-methyl-N′-(1-(naphthalen-2-yl)ethylidene)thiophene-2-carbohydrazide], the “% Inhibition of Apyrase” value stood at 68%.

For the compound `C/C(=N\NC(=O)c1cccc(S(=O)(=O)Nc2ccccc2Cl)c1)c1ccc2ccccc2c1` [I-1, (E)-N-(2-chlorophenyl)-3-(2-(1-(naphthalen-2-yl)ethylidene)hydrazine-1-carbonyl)benzenesulfonamide], the “% Inhibition of Apyrase” value worked out at 74%. The same measure for `C/C(=N\NC(=O)c1ccccc1C)c1ccccn1` [I-18, (E)-2-methyl-N′-(1-(pyridin-2-yl)ethylidene)benzohydrazide]: 13%; for `Cc1ccc(/C=N/NC(=O)c2ccccc2)cc1` [I-33, (E)-N′-(4-methylbenzylidene)benzohydrazide]: 10%; for `C/C(=N\NC(=O)c1cccc(C)n1)c1ccc2ccccc2c1` [I-211, (E)-6-methyl-N′-(1-(naphthalen-2-yl)ethylidene)picolinohydrazide]: 56%. The same measure for `C/C(=N\NC(=O)c1cc(C)n[nH]1)c1ccc2ccccc2c1` [I-15, (E)-3-methyl-N′-(1-(naphthalen-2-yl)ethylidene)-1H-pyrazole-5-carbohydrazide]: 15%; for `C/C(=N\NC(=O)c1ccccc1)c1ccc2ccccc2c1` [I-213, (E)-N′-(1-(naphthalen-2-yl)ethylidene)benzohydrazide]: 55%.

The values are drawn from patent US20240101510A1, “APYRASE INHIBITORS” (Texas Crop Science, priority 2022, published 2024).
